Assay results taken from article PMC12396409, “Screening and hit evaluation of a microbial metabolite library against the pathogenic Plasmodium falciparum and Toxoplasma gondii parasites” (International Journal for Parasitology: Drugs and Drug …, 2025).
Read-outs that look alike come from different tables or passages of the source.

How the values were obtained:
[1] = test system: P. falciparum 3D7 parasites; assay: P. falciparum growth inhibition assay, 2-cycle (120 h treatment), delayed-death screen and dose-response; format: cell-based, Plasmodium falciparum; conditions: for Pf_120h_%Growth_Rep1 / Pf_120h_%Growth_Rep2 / activity at 2 µg/mL: % growth; for activity at 2 µg/mL: Plasmodium falciparum
[2] = test system: T. gondii RH strain (RH-Tub-eYFP) tachyzoites; assay: microbe, parasite or virus in culture; format: cell-based, Toxoplasma gondii; conditions: 72 h; for Tg_72h_%Growth_Rep1 / Tg_72h_%Growth_Rep2 / percent parasite growth at 2 µg/mL: % growth; for percent parasite growth at 2 µg/mL: Toxoplasma gondii
[3] = test system: P. falciparum 3D7 parasites; assay: P. falciparum growth inhibition assay, 1-cycle (72 h treatment), SYBR DNA staining (library screen at 2 μg/mL and dose-response); format: cell-based, Plasmodium falciparum; conditions: for Pf_72h_%Growth_Rep1 / Pf_72h_%Growth_Rep2 / activity at 2 µg/mL: % growth; for activity at 2 µg/mL: Plasmodium falciparum
[4] = library screen at 2 μg/mL, 120 h, replicate 1
[5] = library screen at 2 μg/mL, 120 h, replicate 2
[6] = library screen at 2 μg/mL, replicate 1
[7] = library screen at 2 μg/mL, replicate 2
[8] = library screen at 2 μg/mL, 72 h, replicate 1
[9] = library screen at 2 μg/mL, 72 h, replicate 2
[10] = T. gondii, 2 μg/mL, values are growth (% of control)
[11] = T. gondii, parasite screen 2 μg/mL, replicate 1, read-out: Tg_72h_%Growth_Rep1
[12] = T. gondii, parasite screen 2 μg/mL, replicate 2, read-out: Tg_72h_%Growth_Rep2

CC1OC(=O)C2CC3CCCCC3C(C=CC3CCCC(C)N3C)C12 (stereo not drawn) [BIA-H1744]
Pf_120h_%Growth_Rep1 ([1]; P. falciparum 3D7, 120 h, library screen at 2 μg/mL, replicate 1): 64.50% | Pf_120h_%Growth_Rep2 ([1]; P. falciparum 3D7, 120 h, library screen at 2 μg/mL, replicate 2): 86.77% | Tg_72h_%Growth_Rep1 ([2]; T. gondii RH, library screen at 2 μg/mL, replicate 1): 122.85% | Tg_72h_%Growth_Rep2 ([2]; T. gondii RH, library screen at 2 μg/mL, replicate 2): 95.17% | Pf_72h_%Growth_Rep1 ([3]; P. falciparum 3D7, 72 h, library screen at 2 μg/mL, replicate 1): 66.16% | Pf_72h_%Growth_Rep2 ([3]; P. falciparum 3D7, 72 h, library screen at 2 μg/mL, replicate 2): 101.99%

COC(=O)[C@@]12C(=O)C(C)C(=O)[C@]1(C)C(C)=C[C@H]1[C@]3(C=O)CC[C@H](OC(C)=O)C(C)(C)[C@H]3CC[C@@]12C (stereo partly drawn) [Andrastin A]
Pf_120h_%Growth_Rep1 [1, 4]: 133.36% | Pf_120h_%Growth_Rep2 [1, 5]: 82.36% | Tg_72h_%Growth_Rep1 [2, 6]: 90.21% | Tg_72h_%Growth_Rep2 [2, 7]: 88.06% | Pf_72h_%Growth_Rep1 [3, 8]: 79.79% | Pf_72h_%Growth_Rep2 [3, 9]: 84.23%

CCCN1C[C@H](C)[C@@H](O)[C@](C)(O)[C@@H](CC)OC(=O)[C@H](C)[C@@H](O[C@H]2C[C@@](C)(OC)[C@@H](O)[C@H](C)O2)[C@H](C)[C@@H](O[C@@H]2O[C@H](C)C[C@H](N(C)C)[C@H]2O)[C@](C)(O)C[C@H]1C [Gamithromycin, reference compound]
2) Growth (%) at 120 h ([1]; P. falciparum, 2 μg/mL, 120 h): 15.46% | 3) Fold change (72 h/120 h) ([1]; P. falciparum, growth at 72 h / growth at 120 h, 2 μg/mL): 3.8 | Pf_120h_%Growth_Rep1 [1, 4]: 12.20% | Pf_120h_%Growth_Rep2 [1, 5]: 18.72% | Tg_72h_%Growth_Rep1 [2, 6]: 33.80% | Tg_72h_%Growth_Rep2 [2, 7]: 38.81% | 1) Growth (%) at 72 h ([3]; P. falciparum, 2 μg/mL, 72 h): 58.53% | Pf_72h_%Growth_Rep1 [3, 8]: 42.98% | Pf_72h_%Growth_Rep2 [3, 9]: 74.08%

CC(=O)O[C@@H]1[C@@H]2O[C@H]2[C@@](C)(O)C(=O)[C@@H](C)C/C=C\[C@H]2[C@H](O)C(C)=C(C)[C@H]3[C@H](Cc4ccccc4)NC(=O)[C@@]123 [Epoxycytochalasin C, 19,20-]
Pf_120h_%Growth_Rep1 [1, 4]: 4.88% | Pf_120h_%Growth_Rep2 [1, 5]: 15.35% | Tg_72h_%Growth_Rep1 [2, 6]: 1.38% | Tg_72h_%Growth_Rep2 [2, 7]: 1.44% | Pf_72h_%Growth_Rep1 [3, 8]: 3.41% | Pf_72h_%Growth_Rep2 [3, 9]: 4.96%

CN1CCC2(c3cccc4c3NC3N(C)CCC43c3cccc4c3NC3N(C)CCC43C34CCN(C)C3Nc3c(C56CCN(C)C5Nc5ccccc56)cccc34)c3ccccc3NC12 (stereo not drawn) [Psychotridine]
Pf_120h_%Growth_Rep1 ([1]; P. falciparum, 120 h, parasite screen 2 μg/mL, replicate 1): 15.63% | Pf_120h_%Growth_Rep2 ([1]; P. falciparum, 120 h, parasite screen 2 μg/mL, replicate 2): 4.30% | Mean ([2]; T. gondii, 2 μg/mL, mean of both replicates, growth (% of control)): 39.57 | Replicate 1 [2, 10]: 17.15 | Replicate 2 [2, 10]: 61.99 | Tg_72h_%Growth_Rep1 ([2]; T. gondii, parasite screen 2 μg/mL, replicate 1): 17.15% | Tg_72h_%Growth_Rep2 ([2]; T. gondii, parasite screen 2 μg/mL, replicate 2): 61.99% | Pf_72h_%Growth_Rep1 ([3]; P. falciparum, 72 h, parasite screen 2 μg/mL, replicate 1): 4.01% | Pf_72h_%Growth_Rep2 ([3]; P. falciparum, 72 h, parasite screen 2 μg/mL, replicate 2): -3.25%

O=C(c1cc(Cl)c(Cl)[nH]1)c1c(O)cccc1O [Pyoluteorin]
activity at 2 µg/mL ([1]; 3D7, 120 h, P. falciparum, 120 h, parasite screen 2 μg/mL, replicate 1, read-out: Pf_120h_%Growth_Rep1): 21.2% | activity at 2 µg/mL ([1]; 3D7, 120 h, P. falciparum, 120 h, parasite screen 2 μg/mL, replicate 2, read-out: Pf_120h_%Growth_Rep2): 3.32% | percent parasite growth at 2 µg/mL [2, 11]: -1.3% | percent parasite growth at 2 µg/mL [2, 12]: -1.92% | activity at 2 µg/mL ([3]; 3D7, 72 h, P. falciparum, 72 h, parasite screen 2 μg/mL, replicate 1, read-out: Pf_72h_%Growth_Rep1): 12.8% | activity at 2 µg/mL ([3]; 3D7, 72 h, P. falciparum, 72 h, parasite screen 2 μg/mL, replicate 2, read-out: Pf_72h_%Growth_Rep2): 3.08%

COc1cc(C(=O)O)c2c(c1C)OC(=O)c1c(C)cc(O)c(C=O)c1O2 [Psoromic acid]
activity at 2 µg/mL ([1]; 3D7, P. falciparum, 120 h, parasite screen 2 μg/mL, replicate 1, read-out: Pf_120h_%Growth_Rep1): 90.8% | activity at 2 µg/mL ([1]; 3D7, P. falciparum, 120 h, parasite screen 2 μg/mL, replicate 2, read-out: Pf_120h_%Growth_Rep2): 141% | percent parasite growth at 2 µg/mL [2, 11]: 127% | percent parasite growth at 2 µg/mL [2, 12]: 82.8% | activity at 2 µg/mL ([3]; 3D7, P. falciparum, 72 h, parasite screen 2 μg/mL, replicate 1, read-out: Pf_72h_%Growth_Rep1): 92.3% | activity at 2 µg/mL ([3]; 3D7, P. falciparum, 72 h, parasite screen 2 μg/mL, replicate 2, read-out: Pf_72h_%Growth_Rep2): 123%
